What was measured:
HiBit-BRG1 = molecular target: T1, HiBit-BRG1 (Homo sapiens, UniProt P51532); test: HiBit-BRG1 cell-based degradation assay (Nano-Glo HiBiT Lytic Detection); settings: HeLa cells expressing HiBit-BRG1 and LgBit, 24 h; for DC50: read-out: BRG1 HiBit Degradation IC50; for Dmax: read-out: BRG1 HiBit Degradation Maximum (%)
T1 construct: expressed in transfected cells
Outline: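 Luminescence from reconstituted NanoBiT luciferase after lytic detection served as read-out of remaining HiBit-BRG1 in stable HeLa cells, which also express LgBit. Cells were seeded at 5000 per well and incubated with compound for 24 h. DMSO and a 2 μM known degrader defined the control range.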

HiBiT-BRM = molecular target: T2, HiBiT-BRM (Homo sapiens, UniProt P51531); test: HiBiT-BRM cell-based degradation assay (Nano-Glo HiBiT Lytic Detection); settings: HeLa cells expressing HiBiT-BRM, 24 h; for DC50: read-out: BRM HiBit Degradation IC50
T2 construct: expressed in transfected cells
Outline: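 HeLa cells stably expressing HiBiT-tagged BRM were treated for 24 h, then lysed with LgBiT-containing Nano-Glo reagent and luminescence read. % degradation scaled between DMSO (high control) and 2 μM reference BRM/BRG1 degrader (low control).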

T2 sequence (P51531 whole entry): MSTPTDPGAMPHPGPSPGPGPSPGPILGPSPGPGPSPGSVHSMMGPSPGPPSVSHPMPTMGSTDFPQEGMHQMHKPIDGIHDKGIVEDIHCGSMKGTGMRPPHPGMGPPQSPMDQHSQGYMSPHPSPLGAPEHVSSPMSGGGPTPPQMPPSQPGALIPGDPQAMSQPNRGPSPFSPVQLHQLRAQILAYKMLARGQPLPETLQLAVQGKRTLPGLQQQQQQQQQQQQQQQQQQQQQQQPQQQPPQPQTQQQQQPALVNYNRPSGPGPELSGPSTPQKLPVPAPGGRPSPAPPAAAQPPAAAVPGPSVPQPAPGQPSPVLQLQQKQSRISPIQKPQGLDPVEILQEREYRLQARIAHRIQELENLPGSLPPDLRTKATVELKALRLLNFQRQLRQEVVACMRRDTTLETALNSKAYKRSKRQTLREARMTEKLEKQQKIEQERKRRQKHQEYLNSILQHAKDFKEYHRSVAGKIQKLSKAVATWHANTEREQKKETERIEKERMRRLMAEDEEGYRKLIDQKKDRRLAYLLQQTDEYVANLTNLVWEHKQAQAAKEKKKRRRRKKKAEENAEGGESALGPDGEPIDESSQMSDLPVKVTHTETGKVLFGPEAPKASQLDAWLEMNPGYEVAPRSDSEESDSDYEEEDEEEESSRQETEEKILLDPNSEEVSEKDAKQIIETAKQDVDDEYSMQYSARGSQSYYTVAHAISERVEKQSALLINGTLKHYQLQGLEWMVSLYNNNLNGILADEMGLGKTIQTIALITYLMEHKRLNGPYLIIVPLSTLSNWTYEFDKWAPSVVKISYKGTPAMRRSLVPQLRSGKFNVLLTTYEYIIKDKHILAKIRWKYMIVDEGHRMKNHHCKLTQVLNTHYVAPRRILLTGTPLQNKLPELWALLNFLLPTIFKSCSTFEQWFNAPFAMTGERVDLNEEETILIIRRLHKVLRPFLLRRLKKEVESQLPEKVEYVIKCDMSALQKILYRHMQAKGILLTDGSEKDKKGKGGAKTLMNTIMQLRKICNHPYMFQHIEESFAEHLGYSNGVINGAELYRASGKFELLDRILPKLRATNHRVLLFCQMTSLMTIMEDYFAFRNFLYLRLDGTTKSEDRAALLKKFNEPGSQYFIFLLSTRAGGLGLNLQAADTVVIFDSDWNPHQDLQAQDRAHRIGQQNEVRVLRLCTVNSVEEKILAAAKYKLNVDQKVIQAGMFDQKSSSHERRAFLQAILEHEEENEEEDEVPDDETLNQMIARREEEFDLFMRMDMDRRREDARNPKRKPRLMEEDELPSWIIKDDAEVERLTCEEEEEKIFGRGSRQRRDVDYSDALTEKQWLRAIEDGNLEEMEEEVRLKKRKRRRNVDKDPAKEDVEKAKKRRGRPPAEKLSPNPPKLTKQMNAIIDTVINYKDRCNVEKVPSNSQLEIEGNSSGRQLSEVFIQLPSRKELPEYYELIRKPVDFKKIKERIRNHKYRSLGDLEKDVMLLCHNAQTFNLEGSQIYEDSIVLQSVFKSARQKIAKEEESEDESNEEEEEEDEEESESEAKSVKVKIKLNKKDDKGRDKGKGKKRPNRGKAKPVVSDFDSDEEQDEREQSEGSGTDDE
T1 sequence (P51532 whole entry): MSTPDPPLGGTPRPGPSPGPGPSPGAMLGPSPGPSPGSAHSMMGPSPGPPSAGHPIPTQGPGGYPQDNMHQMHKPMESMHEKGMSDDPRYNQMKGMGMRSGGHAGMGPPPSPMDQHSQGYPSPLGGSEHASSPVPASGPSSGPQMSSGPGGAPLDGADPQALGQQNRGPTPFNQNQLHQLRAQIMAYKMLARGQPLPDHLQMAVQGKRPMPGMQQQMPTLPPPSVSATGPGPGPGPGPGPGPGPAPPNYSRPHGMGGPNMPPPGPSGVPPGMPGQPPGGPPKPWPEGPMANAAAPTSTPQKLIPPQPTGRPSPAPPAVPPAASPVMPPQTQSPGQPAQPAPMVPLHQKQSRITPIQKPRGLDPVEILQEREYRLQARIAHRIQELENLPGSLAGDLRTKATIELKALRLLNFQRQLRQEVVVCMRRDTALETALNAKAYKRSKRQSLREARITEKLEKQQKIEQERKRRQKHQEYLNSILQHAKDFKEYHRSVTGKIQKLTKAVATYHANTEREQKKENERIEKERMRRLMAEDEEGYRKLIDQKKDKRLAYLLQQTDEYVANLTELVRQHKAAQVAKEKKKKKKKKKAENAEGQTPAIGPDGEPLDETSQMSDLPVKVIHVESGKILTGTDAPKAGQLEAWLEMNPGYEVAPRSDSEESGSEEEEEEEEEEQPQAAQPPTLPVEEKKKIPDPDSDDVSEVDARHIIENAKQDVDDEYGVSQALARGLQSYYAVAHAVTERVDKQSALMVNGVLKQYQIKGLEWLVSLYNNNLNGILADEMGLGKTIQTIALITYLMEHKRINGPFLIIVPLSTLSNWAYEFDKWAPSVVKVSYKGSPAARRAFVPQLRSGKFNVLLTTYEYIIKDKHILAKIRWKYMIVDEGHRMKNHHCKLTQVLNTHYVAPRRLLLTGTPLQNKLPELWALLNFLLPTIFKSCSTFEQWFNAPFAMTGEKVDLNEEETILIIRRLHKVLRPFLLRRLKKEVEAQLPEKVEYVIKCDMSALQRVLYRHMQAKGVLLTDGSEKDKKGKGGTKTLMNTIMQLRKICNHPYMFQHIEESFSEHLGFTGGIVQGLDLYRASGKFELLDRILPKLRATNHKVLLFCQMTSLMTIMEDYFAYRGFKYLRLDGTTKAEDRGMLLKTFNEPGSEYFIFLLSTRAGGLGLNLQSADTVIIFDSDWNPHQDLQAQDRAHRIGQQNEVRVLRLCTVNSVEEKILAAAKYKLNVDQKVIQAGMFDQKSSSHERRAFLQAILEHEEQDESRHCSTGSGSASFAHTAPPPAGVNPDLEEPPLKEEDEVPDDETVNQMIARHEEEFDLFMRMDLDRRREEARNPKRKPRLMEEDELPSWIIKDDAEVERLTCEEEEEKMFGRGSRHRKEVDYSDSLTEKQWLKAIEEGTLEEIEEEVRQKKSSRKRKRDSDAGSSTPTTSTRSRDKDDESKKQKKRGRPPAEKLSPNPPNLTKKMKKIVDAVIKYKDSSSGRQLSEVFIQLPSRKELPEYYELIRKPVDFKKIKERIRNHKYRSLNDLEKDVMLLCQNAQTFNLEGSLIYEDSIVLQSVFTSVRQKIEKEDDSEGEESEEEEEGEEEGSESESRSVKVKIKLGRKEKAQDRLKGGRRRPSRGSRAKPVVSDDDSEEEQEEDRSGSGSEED

Compound	DC50 (HiBit-BRG1)	Dmax (HiBit-BRG1)	BRM HiBit Degradation Maximum (%) (HiBiT-BRM)	DC50 (HiBiT-BRM)
Cc1ncsc1-c1ccc([C@H](C)NC(=O)[C@@H]2C[C@@H](O)CN2C(=O)[C@@H](c2cc(OCCN3CC4(C3)CN(C(=O)c3ccc(CCOc5cc(-c6ccccc6O)nnc5N)cc3)C4)no2)C(C)C)cc1 [Compound 208, (2S,4R)-1-[(2R)-2-[3-(2-[6-[4-(2-[[3-amino-6-(2-hydroxyphenyl)pyridazin-4-yl]oxy]ethyl)benzoyl]-2,6-diazaspiro[3.3]heptan-2-yl]ethoxy)-1,2-oxazol-5-yl]-3-methylbutanoyl]-4-hydroxy-N-[(1S)-1-[4-(4-methyl-1,3-thiazol-5-yl)phenyl]ethyl]pyrrolidine-2-carboxamide]	> 100 nM	> 75%	A (“A” indicates maximum degradation ≥75%)	> 10 nM
Cc1ncsc1-c1ccc([C@H](C)NC(=O)[C@@H]2C[C@@H](O)CN2C(=O)[C@@H](c2cc(OCCN3CCC4(CC3)CCN(C(=O)c3ccc(CCOc5cc(-c6ccccc6O)nnc5N)cc3)CC4)no2)C(C)C)cc1 [Compound 209, (2S,4R)-1-[(2R)-2-[3-(2-[9-[4-(2-[[3-amino-6-(2-hydroxyphenyl)pyridazin-4-yl]oxy]ethyl)benzoyl]-3,9-diazaspiro[5.5]undecan-3-yl]ethoxy)-1,2-oxazol-5-yl]-3-methylbutanoyl]-4-hydroxy-N-[(1S)-1-[4-(4-methyl-1,3-thiazol-5-yl)phenyl]ethyl]pyrrolidine-2-carboxamide]	> 100 nM	> 75%	A (“A” indicates maximum degradation ≥75%)	> 10 nM
Cc1ncsc1-c1ccc([C@H](C)NC(=O)[C@@H]2C[C@@H](O)CN2C(=O)[C@@H](c2cc(OCCN3CCC(OC4CCN(C(=O)c5ccc(CCOc6cc(-c7ccccc7O)nnc6N)cc5)CC4)CC3)no2)C(C)C)cc1 [Compound 210, (2S,4R)-1-((R)-2-(3-(2-(4-((1-(4-(2-((3-amino-6-(2-hydroxyphenyl)pyridazin-4-yl)oxy)ethyl)benzoyl)piperidin-4-yl)oxy)piperidin-1-yl)ethoxy)isoxazol-5-yl)-3-methylbutanoyl)-4-hydroxy-N-((S)-1-(4-(4-methylthiazol-5-yl)phenyl)ethyl)pyrrolidine-2-carboxamide]	> 100 nM	> 50%	A (“A” indicates maximum degradation ≥75%)	< 10 nM
Cc1ncsc1-c1ccc([C@H](C)NC(=O)[C@@H]2C[C@@H](O)CN2C(=O)[C@@H](c2cc(OCCN3CC(C4CCN(C(=O)c5ccc(CCOc6cc(-c7ccccc7O)nnc6N)cc5)CC4)C3)no2)C(C)C)cc1 [Compound 211, (2S,4R)-1-[(2R)-2-[3-[2-(3-[1-[4-(2-[[3-amino-6-(2-hydroxyphenyl)pyridazin-4-yl]oxy]ethyl)benzoyl]piperidin-4-yl]azetidin-1-yl)ethoxy]-1,2-oxazol-5-yl]-3-methylbutanoyl]-4-hydroxy-N-[(1S)-1-[4-(4-methyl-1,3-thiazol-5-yl)phenyl]ethyl]pyrrolidine-2-carboxamide]	> 1000 nM	> 50%	A (“A” indicates maximum degradation ≥75%)	> 10 nM
Cc1ncsc1-c1ccc([C@H](C)NC(=O)[C@@H]2C[C@@H](O)CN2C(=O)[C@@H](c2cc(OCCNCCCCCCCCCCC(=O)NCc3ccc(CCOc4cc(-c5ccccc5O)nnc4N)cc3)no2)C(C)C)cc1 [Compound 212, (2S,4R)-1-[(2R)-2-[3-(2-[[10-([[4-(2-[[3-amino-6-(2-hydroxyphenyl)pyridazin-4-yl]oxy]ethyl)phenyl]methyl]carbamoyl)decyl]amino]ethoxy)-1,2-oxazol-5-yl]-3-methylbutanoyl]-4-hydroxy-N-[(1S)-1-[4-(4-methyl-1,3-thiazol-5-yl)phenyl]ethyl]pyrrolidine-2-carboxamide]	> 1000 nM	< 50%	A (“A” indicates maximum degradation ≥75%)	> 10 nM
Cc1ncsc1-c1ccc([C@H](C)NC(=O)[C@@H]2C[C@@H](O)CN2C(=O)[C@@H](c2cc(OCCN3CC4=C(C3)CN(C(=O)c3ccc(CCOc5cc(-c6ccccc6O)nnc5N)cc3)C4)no2)C(C)C)cc1 [Compound 213, (2S,4R)-1-((R)-2-(3-(2-(5-(4-(2-((3-amino-6-(2-hydroxyphenyl)pyridazin-4-yl)oxy)ethyl)benzoyl)-3,4,5,6-tetrahydropyrrolo[3,4-c]pyrrol-2(1H)-yl)ethoxy)isoxazol-5-yl)-3-methylbutanoyl)-4-hydroxy-N-((S)-1-(4-(4-methylthiazol-5-yl)phenyl)ethyl)pyrrolidine-2-carboxamide]	> 100 nM	> 75%	A (“A” indicates maximum degradation ≥75%)	> 10 nM
Cc1ncsc1-c1ccc([C@H](C)NC(=O)[C@@H]2C[C@@H](O)CN2C(=O)[C@@H](NC(=O)CCCCCCCCCCCCCCC(=O)NCc2ccc(CCOc3cc(-c4ccccc4O)nnc3N)cc2)C(C)(C)C)cc1 [Compound 214, N1-(4-(2-((3-amino-6-(2-hydroxyphenyl)pyridazin-4-yl)oxy)ethyl)benzyl)-N16-((S)-1-((2S,4R)-4-hydroxy-2-(((S)-1-(4-(4-methylthiazol-5-yl)phenyl)ethyl)carbamoyl)pyrrolidin-1-yl)-3,3-dimethyl-1-oxobutan-2-yl)hexadecanediamide]	> 1000 nM	< 50%	A (“A” indicates maximum degradation ≥75%)	> 10 nM
Cc1ncsc1-c1ccc([C@H](C)NC(=O)[C@@H]2C[C@@H](O)CN2C(=O)[C@@H](NC(=O)CCCCCCCCCCCCCCC(=O)N(C)Cc2ccc(CCOc3cc(-c4ccccc4O)nnc3N)cc2)C(C)(C)C)cc1 [Compound 215, N1-(4-(2-((3-amino-6-(2-hydroxyphenyl)pyridazin-4-yl)oxy)ethyl)benzyl)-N16-((S)-1-((2S,4R)-4-hydroxy-2-(((S)-1-(4-(4-methylthiazol-5-yl)phenyl)ethyl)carbamoyl)pyrrolidin-1-yl)-3,3-dimethyl-1-oxobutan-2-yl)-N1-methylhexadecanediamide]	> 1000 nM	< 50%	A (“A” indicates maximum degradation ≥75%)	> 10 nM
Cc1ncsc1-c1ccc(CNC(=O)[C@@H]2C[C@@H](O)CN2C(=O)[C@@H](NC(=O)CCN2[C@@H]3CC[C@H]2CN(C(=O)c2ccc(CCOc4cc(-c5ccccc5O)nnc4N)cc2)C3)C(C)(C)C)cc1 [Compound 216, (2S,4R)-1-((2S)-2-(3-(3-(4-(2-((3-amino-6-(2-hydroxyphenyl)pyridazin-4-yl)oxy)ethyl)benzoyl)-3,8-diazabicyclo[3.2.1]octan-8-yl)propanamido)-3,3-dimethylbutanoyl)-4-hydroxy-N-(4-(4-methylthiazol-5-yl)benzyl)pyrrolidine-2-carboxamide]	> 1000 nM	< 50%	C (“C” indicates maximum degradation <50%)	> 1000 nM
Cc1ncsc1-c1ccc([C@H](C)NC(=O)[C@@H]2C[C@@H](O)CN2C(=O)[C@@H](c2cc(OCCN3CCN(c4cc(-c5ccccc5O)nnc4N)CC3)no2)C(C)C)cc1 [Compound 217, (2S,4R)-1-((R)-2-(3-(2-(4-(3-amino-6-(2-hydroxyphenyl)pyridazin-4-yl)piperazin-1-yl)ethoxy)isoxazol-5-yl)-3-methylbutanoyl)-4-hydroxy-N-((S)-1-(4-(4-methylthiazol-5-yl)phenyl)ethyl)pyrrolidine-2-carboxamide]	> 1000 nM	< 50%	A (“A” indicates maximum degradation ≥75%)	> 10 nM
Cc1ncsc1-c1ccc([C@H](C)NC(=O)[C@@H]2C[C@@H](O)CN2C(=O)[C@@H](c2cc(OCCNCCCCC(=O)NCc3ccc(CCOc4cc(-c5ccccc5O)nnc4N)cc3)no2)C(C)C)cc1 [Compound 218, (2S,4R)-1-((R)-2-(3-(2-((5-((4-(2-((3-amino-6-(2-hydroxyphenyl)pyridazin-4-yl)oxy)ethyl)benzyl)amino)-5-oxopentyl)amino)ethoxy)isoxazol-5-yl)-3-methylbutanoyl)-4-hydroxy-N-((S)-1-(4-(4-methylthiazol-5-yl)phenyl)ethyl)pyrrolidine-2-carboxamide]	> 1000 nM	< 50%	B (“B” indicates maximum degradation ≥50%)	> 100 nM
Cc1ncsc1-c1ccc(CNC(=O)[C@@H]2C[C@@H](O)CN2C(=O)[C@@H](NC(=O)CCN2CC3=C(C2)CN(C(=O)c2ccc(CCOc4cc(-c5ccccc5O)nnc4N)cc2)C3)C(C)(C)C)cc1 [Compound 219, (2S,4R)-1-((S)-2-(3-(5-(4-(2-((3-amino-6-(2-hydroxyphenyl)pyridazin-4-yl)oxy)ethyl)benzoyl)-3,4,5,6-tetrahydropyrrolo[3,4-c]pyrrol-2(1H)-yl)propanamido)-3,3-dimethylbutanoyl)-4-hydroxy-N-(4-(4-methylthiazol-5-yl)benzyl)pyrrolidine-2-carboxamide]	> 1000 nM	< 50%	B (“B” indicates maximum degradation ≥50%)	> 1000 nM

Reference: patent US20230150974A1 (Foghorn Therapeutics Inc., priority 2020, published 2023)
